One assay deals with T1, pseudocholinesterase (Homo sapiens, UniProt P06276).
T1 construct: a 100 μl aliquot of human plasma; from tissue; host or cells: human plasma (EDTA blood, stored frozen)
As to the kind of experiment: Inhibition of human plasma pseudocholinesterase (PChE) activity (Test Method 1). Format: biochemical. The settings on record: 30 min preincubation. As for the experimental part:
(§1) The following method was used to determine the relative inhibition of pseudocholinesterase and acetylcholinesterase by compounds of the present invention.
Plasma (Source of Pseudocholinesterase Enzyme)
Human Plasma was obtained from blood which was collected in ethylenediaminetetraacetic acid (EDTA) treated tubes. Collected plasma was stored frozen at -20° C. until use.
(§2) The buffer/chromogen solution was 0.25 mM 5,5'-dithiobis-[2-nitrobenzoic acid] (chromogen), 50 mM phosphate buffer, pH 7.2. In making up the buffer/chromogen solution and to keep it as colorless as possible, the phosphate buffer was first adjusted to pH 7.1 with NaOH; the chromogen was then added and dissolved; the pH was adjusted to 7.2; and the final volume was adjusted with addition of Milli-Q water. 5,5'-dithiobis-(2-nitrobenzoic acid) was obtained from Sigma Chemicals, St. Louis, MO.
(§3) The substrate solution for the pseudocholinesterase assay was 156 mM S-butyrylthiocholine iodide, and the substrate solution for the acetylcholinesterase assay was 156 mM S-acetylthiocholine iodide. Both substrate compounds were obtained from Sigma Chemicals.
(§4) Test Compound Stock Solutions
(§5) Solutions of all test compounds were made up at 2 μM, 20 μM, and 200 μM concentrations (in 0.9% saline solution) except as noted where lower concentrations were necessary because of decreased solubility of the compound in saline solution.
Pseudocholinesterase (PChE) Assay
In three separate tubes, a 100 μl aliquot of either 0.9% saline solution, 2 μM test compound solution, or 20 μM test compound solution was mixed with a 100 μl aliquot of human plasma, and the tubes were placed in a 35° C. water bath. Four cuvettes, each containing 3 ml buffer/chromogen solution mixed with 100 μl substrate solution (156 mM S-butyrylthiocholine iodide), had been placed in a heated cuvette holder (35° C.) in a Beckman DU-8B Spectrophotometer (Beckman Instruments). After the temperature of the buffer/chromogen/substrate solution in the cuvette had equilibrated for about 10 minutes, and after 0 or 30 minutes incubation of the plasma/test compound solution, a 25 μl aliquot of the plasma/test compound solutions was added to the corresponding cuvettes numbered 2-4. Cuvette #1 remained a blank. After mixing, the net absorbance of each cuvette was determined at 405 nm every 35 seconds for ten readings. From a plot of net absorbance versus time, the initial linear portion of the curve was determined, and a rate of absorbance change per minute was calculated. The positive control (100% PChE activity) was the plasma/saline solution.
(§6) Each compound was tested for its ability to inhibit plasma pseudocholinesterase activity and acetylcholinesterase activity. Because of variation in the time points in the linear portion of the curve, inhibition values below 10-15% and higher than 85-90% are nearly indistinguishable from 0% and 100%, respectively.

The next assay concerns the target T2, acetylcholinesterase (Homo sapiens, UniProt P22303).
T2 construct: The supernatant (lysed RBC's) was stored frozen; from tissue; host or cells: lysed human red blood cells (supernatant of hypotonic lysis)
As to the kind of experiment: Inhibition of acetylcholinesterase (AChE) activity of lysed human red blood cells (Test Method 1). The settings on record: 60 min preincubation. In kind it is biochemical. How it is done: as §1
Lysed Red Blood Cells (RBC's) (Source of Acetylcholinesterase Enzyme)
Human blood which was collected in EDTA treated tubes was centrifuged at 1500×g for 10 min. at 4° C. One volume of chilled 0.9% saline solution was gently mixed with one volume of packed RBC's. One volume of this suspension was then washed three times with ten volumes of chilled 0.9% saline solution (4° C.). Each wash was centrifuged at 1500×g for 10 min. at 4° C. and supernatant was discarded. After the last wash the supernatant was replaced with deionized, distilled water (treated by Milli-Q apparatus, Millipore Corp., Bedford, MA) (4° C.). After 15 min. at 4° C. the suspension was centrifuged at 1500×g for 10 min. at 4° C. The supernatant (lysed RBC's) was stored frozen at -20° C. until use.
as §2, §3, §4, §5
Acetylcholinesterase (AChE) Assay
The acetylcholinesterase assay was performed identically to the pseudocholinesterase assay with the following exceptions. The concentrations of the stock solutions of test compounds were 20 μM and 200 μM, instead of 2 μM and 20 μM, and the substrate solution was 156 mM S-acetylthiocholine iodide instead of S-butyrylthiocholine iodide. The lysed RBC's/test compound solution was incubated for 0 and 60 minutes instead of 0 and 30 minutes before being added to the cuvette containing the buffer/chromogen/substrate solution. From a plot of net absorbance versus time there was an initial period before the curve reached a steady linear rate. From this linear portion of the curve a rate of absorbance change per minute was calculated.
as §6

T2 sequence (P22303 other isoform, or with tags, fused parts or gaps): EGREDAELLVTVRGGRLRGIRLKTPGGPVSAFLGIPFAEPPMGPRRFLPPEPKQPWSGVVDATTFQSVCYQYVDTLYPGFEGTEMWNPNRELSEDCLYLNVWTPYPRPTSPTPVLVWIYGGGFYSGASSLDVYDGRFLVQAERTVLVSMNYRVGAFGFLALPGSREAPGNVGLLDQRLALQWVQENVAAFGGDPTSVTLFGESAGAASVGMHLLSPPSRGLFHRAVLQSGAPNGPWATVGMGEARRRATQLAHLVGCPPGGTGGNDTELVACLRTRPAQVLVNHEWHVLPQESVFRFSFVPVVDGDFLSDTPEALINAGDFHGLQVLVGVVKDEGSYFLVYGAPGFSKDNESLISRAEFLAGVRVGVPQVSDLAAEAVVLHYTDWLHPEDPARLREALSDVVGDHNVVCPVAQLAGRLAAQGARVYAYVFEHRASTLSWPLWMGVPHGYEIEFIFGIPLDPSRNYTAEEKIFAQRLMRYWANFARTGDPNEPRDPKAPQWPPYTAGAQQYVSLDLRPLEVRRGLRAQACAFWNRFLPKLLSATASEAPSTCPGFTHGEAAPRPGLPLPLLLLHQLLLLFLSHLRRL
T1 sequence (P06276 29-602): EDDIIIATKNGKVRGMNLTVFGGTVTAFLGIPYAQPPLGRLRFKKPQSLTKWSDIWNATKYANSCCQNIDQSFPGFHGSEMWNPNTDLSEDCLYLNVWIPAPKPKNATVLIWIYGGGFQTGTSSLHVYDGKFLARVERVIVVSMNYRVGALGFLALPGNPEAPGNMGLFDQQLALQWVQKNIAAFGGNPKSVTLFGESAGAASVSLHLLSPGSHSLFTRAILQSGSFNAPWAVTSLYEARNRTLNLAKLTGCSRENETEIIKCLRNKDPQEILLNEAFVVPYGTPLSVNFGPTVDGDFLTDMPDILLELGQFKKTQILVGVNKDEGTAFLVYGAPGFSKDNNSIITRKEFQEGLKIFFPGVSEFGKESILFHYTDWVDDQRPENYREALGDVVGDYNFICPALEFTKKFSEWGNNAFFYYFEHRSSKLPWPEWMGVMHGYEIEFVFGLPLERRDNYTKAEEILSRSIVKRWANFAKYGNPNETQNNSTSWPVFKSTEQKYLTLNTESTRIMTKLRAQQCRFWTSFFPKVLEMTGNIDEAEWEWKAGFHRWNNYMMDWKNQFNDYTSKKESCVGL

The term inhibition denotes the relative decrease from the control value, in per cent. Lower therefore signals a weak effect. `NP(N)(=O)NC(=O)c1ccc(F)cc1` [Test Compound 4, N-(diaminophosphinyl)-4-fluorobenzamide] came in with an inhibition at 1 µM against pseudocholinesterase (1 μM) of 92.8%. Further, the values for the inhibition at 10 µM on pseudocholinesterase (10 μM) and against acetylcholinesterase (10 μM) were 99.1% and 12.4%, respectively. In addition, at acetylcholinesterase (100 μM), the inhibition at 100 µM was determined as 52.3%.

Values taken from patent publication US4800194A, “Acylphosphorotriamides useful as lipid-altering agents” (priority 1986, dated 1989).
